US6984649B1, “Pyridine derivatives” (Bayer Aktiengesellschaft, priority 2000, dated 2006)
Counter-ions that a name gives are not always drawn.

These compounds were tested against T1, human IKK-β (Homo sapiens, UniProt O14920) (assay: IKK-β kinase inhibitory assay). Settings: compounds as yielded by solid phase synthesis, purity about 40 to 90%, read-out: In vitro activity grade (In vitro IC50).
T1 construct: A cDNA fragment encoding human IKK-β open reading frame was generated by PCR; His tag (from pcDNA3.1/His C); made in house; host or cells: Sf21 insect cells (baculovirus); substrate made in E. coli
T1 sequence (O14920 1-756): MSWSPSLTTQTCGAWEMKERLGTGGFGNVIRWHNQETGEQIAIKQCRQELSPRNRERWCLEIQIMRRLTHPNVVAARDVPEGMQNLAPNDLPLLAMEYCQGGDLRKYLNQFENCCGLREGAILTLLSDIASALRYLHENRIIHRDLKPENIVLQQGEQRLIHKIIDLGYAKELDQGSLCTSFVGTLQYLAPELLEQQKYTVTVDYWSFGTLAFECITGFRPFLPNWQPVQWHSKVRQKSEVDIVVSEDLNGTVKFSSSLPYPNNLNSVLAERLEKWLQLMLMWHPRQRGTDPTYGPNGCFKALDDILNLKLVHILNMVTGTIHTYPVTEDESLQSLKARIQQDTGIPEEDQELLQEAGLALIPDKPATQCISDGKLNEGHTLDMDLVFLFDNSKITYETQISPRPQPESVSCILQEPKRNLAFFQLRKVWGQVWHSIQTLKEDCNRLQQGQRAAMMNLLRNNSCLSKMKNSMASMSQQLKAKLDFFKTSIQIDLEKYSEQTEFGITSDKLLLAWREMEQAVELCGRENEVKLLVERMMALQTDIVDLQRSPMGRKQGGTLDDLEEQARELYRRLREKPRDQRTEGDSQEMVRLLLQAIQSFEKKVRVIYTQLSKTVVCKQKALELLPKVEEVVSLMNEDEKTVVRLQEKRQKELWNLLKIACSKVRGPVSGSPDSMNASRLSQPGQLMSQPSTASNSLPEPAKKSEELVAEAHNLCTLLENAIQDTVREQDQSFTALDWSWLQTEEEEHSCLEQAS
Type: biochemical
Excerpt: [IKK-β Kinase Inhibitory Assay]
(1) Preparation of IKK-β Kinase Protein.
• A cDNA fragment encoding human IKK-β open reading frame was generated by PCR with the use of a pair of primers designed from the published sequence (Woronicz J D et al. (1997) Science 278, 866-869). A template was obtained from Quickclone cDNA (Clontech) using Elongase™ Amplification kit (Life Technologies). The DNA fragments generated by PCR were gel-purified and subcloned into pBluescript. The cDNA fragment cloned in pBluescript was inserted into pcDNA3.1/His C KpnI/NotI, and transferred into pVL1393 SmaI/XbaI (Pharmingen) to construct a baculovirus transfer vector. Then the vector, together with the linearized baculovirus (BaculoGold™, Pharmingen) was used to transfect Sf21 cells (Invitrogen, San Diego, Calif.). Generated recombinant baculovirus was cloned and amplified in Sf21 cells, grown in TNM-FH insect cell medium (Life Technologies, Inc.) supplemented with 10% FCS, […] Gentamycin, 0.1% Pluronic F-68 (Life Technologies, Inc.) as suspension culture (200 ml in 1 L Erlenmeyer flask; 27° C.; 130 rpm). Sf21 cells were infected with this amplified virus with a multiplicity of infection of 5 following standard protocols (Crossen R, Gruenwald S (1997) Baculovirus Expression Vector System Instruction Manual, Pharmingen Corporation) and harvested 48 hrs later. The cells were lysed to obtain the produced chimeric protein of IKK-β kinase fused by histidine (His-tagged IKK-beta). (2) The Preparation of Purified GST-IκBα Fusion Proteins • An expression vector containing the nucleotide sequence encoding fusion protein of GST with amino acid residues 1 to 54 of IκBα under the control of an IPTG-inducible promoter was constructed. The expression vector was introduced in E. coli and the transformant was cultured and lysed to obtain a GST-IκBα fusion protein. Then the resulting GST-IκBα fusion protein was purified and biotinated for kinase assay. (3) The Measurement of IKK-β Kinase Activity • The 96-well format kinase assay of IKK-β were performed to test the inhibitory activity of the compounds of the present invention. First, 5 μl of a test compound was put in the presence of 2.5% dimethyl sulfoxide (DMSO) in each well in a U-bottomed 96-well plate (Falcon). For control wells of background (BG) and total phosphorylation (TP), 5 μl of 2.5% DMSO was put. Recombinant IKK-β (final 0.6 μg/ml) and bio-GST-IκBα (1-54) (final 0.2 μM) were diluted in 25 μl of 2×kinase buffer β (40 mM Tris-HCl, pH 7.6, 40 mM MgCl2, 40 mM β-glycerophosphate, 40 mM p-nitrophenylphosphate, 2 mM EDTA, 40 mM creatine phosphate, 2 mM DTT, 2 mM Na3VO4, 0.2 mg/ml BSA and 0.8 mM phenylmethylsulfonyl fluoride) and transferred to the 96-well plate. Bio-GST-IκBα (1-54) in 25 μl of 2×kinase buffer β without IKK-β was transferred to BG wells. Then 20 μl of 12.5 μM ATP, 62.5 μCi/ml [γ-^33P] ATP (Amersham Pharmacia Biotech) was added and the resulting mixture was incubated for 2 hrs at room temperature. The kinase reactions were terminated by the addition of 150 μl of termination buffer (100 mM EDTA, 1 mg/ml BSA, 0.2 mg NaN3). One hundred and fifty μl of the sample were transferred to a streptavidin-coated, white MTP (Steffens Biotechniche Analysen GmbH #08114E14.FWD) to capture the biotinylated substrates. After 1 hr of incubation, non-bound radioactivity was eliminated by washing the wells five times with 300 μl of washing buffer including 0.9% NaCl and 0.1% (w/v) Tween-20 with the use of a MW-96 plate washer (BioTec). The bound radioactivity was determined after the addition of 170 μl MicroScint-PS scintillation cocktail (Packard) using a TopCount scintillation counter. [Syk Tyrosine Kinase Inhibitory Assay for Selectivity] (1) Preparation of Syk Protein • A cDNA fragment encoding human Syk openreading frame was cloned from total RNA of human Burkitt's lymphoma B cell lines, Raji (American Type Culture Collection), with the use of RT-PCR method.
An IC50 of under 500 nM was found for N#Cc1c(NCCN)cc(-c2c(O)cccc2OCC2CC2)nc1N [Example 34-14] in this work. An IC50 of 2000 to 10000 nM was found for N#Cc1c([C@@H]2Cc3ccccc3CN2)cc(-c2ccccc2O)nc1N [Example 1-27] in this work. An IC50 of under 500 nM was found for CCCCOc1cccc(O)c1-c1cc(C2CCNCC2)c(C#N)c(N)n1 [Example 2-72] in this work. An IC50 of over 10000 nM was found for N#Cc1c(C2CNc3ccccc3C2)cc(-c2ccccc2O)nc1N (centres unmarked) [Example 1-16] in this work. An IC50 of over 10000 nM was found for N#Cc1c(C2CCCNC2)cc(-c2ccccc2O)nc1N1CCNCC1 (centres unmarked) [Example 4-5, 6-(2-hydroxyphenyl)-2-(1-piperazinyl)-4-(3-piperidinyl)nicotinonitrile dihydrochloride] in this work. An IC50 of under 500 nM was found for Cn1c(=O)[nH]c2nc(-c3c(O)cccc3OCC3CC3)cc(C3CCCNC3)c2c1=O (centres unmarked) [Example 10-2, 7-(2-Cyclopropylmethoxy-6-hydroxy-phenyl)-3-methyl-5-piperidin-3-yl-1H-pyrido[2,3-d]pyrimidine-2,4-dione] in this work. An IC50 of over 10000 nM was found for N#Cc1c(N2CCCCC2)cc(-c2ccccc2O)nc1N [Example 34-05] in this work.

These compounds were tested on A549 human lung epithelium cell line (assay: RANTES production in response to TNF-α from A549 cells). Settings: Homo sapiens, A549, A549 cells, 100 ng/ml TNF-α, read-out: Cellular activity grade (A549) (Cellular IC50).
Type: cell-based
Procedure: [The Measurement of RANTES Production in Response to TNF-α from A549 Cells]
(1) Preparation of A549 Cells
• The A549 human lung epithelium cell line (ATCC […]) was maintained in Dulbecco's modified Eagle's medium (D-MEM, Nikken Biomedical Institute) supplemented with 10% FCS (Gibco), 100 U/ml penicillin, 100 μg/ml streptomycin, and 2 mM glutamine (culture medium). Forty thousand (4×10^4) cells (80 μl/well) were seeded in each well of 96 well flat-bottom tissue culture plate (Falcon #3072). The plate was allowed to stand for 2 hrs, thus the cells were adhered to the bottom of each well. To the each well was added 10 μl vehicle (1% DMSO), serial dilutions of test compounds in 1% DMSO, or 5 nM Dexamethasone in 1% DMSO as a reference. The mixture (90 μl/well) was incubated for 1 hr at 37° C. After 1 hr, 1 μg/ml TNF-α (10 μl) in culture medium was added to the mixture to obtain 100 μl of reaction mixture. The reaction mixture was cultured for 24 hrs to stimulate the cells with 100 ng/ml TNF-α. Cells with vehicle without TNF-α stimulation were also prepared. (2) Measurement of RANTES Production • Then the concentration of RANTES released from the cells in the supernatants of each well was determined using a quantitative sandwich enzyme immunoassay technique. First, 2 μg/ml mouse anti-huRANTES mAb (R&D Systems, #mAb678) in PBS buffer (pH 7.4, 100 μl) was put in each well of 96-well NUNC fluoro plate (Nalge Nunc, New York USA) (Final 200 ng/well) and the plate was allowed to stand for overnight at 4° C. to be coated by the antibody. Each well of the plate was then washed with 350 μl wash buffer (0.05% Tween-20, 0.85% NaCl, and 25 mM Tris/HCl pH7.4) for three times. Blocking buffer containing 1% BSA (Sigma 99% pure, 100 g), 5% sucrose (Nacalai tesque, 99% pure, 500 g), and 0.02% azide (Nacalai tesque, 100%, 500 g) were added (200 μl) to each well and then the plate was allowed to stand for 4 hours to stabilize the coated antibody. Next, 50 μl supernatants of cell culture prepared in (1) above were put in each well of the 96-well NUNC fluoro plate with coated antibody. Recombinant Human RANTES (Pepro Tech, Inc. #300-06) was used as the standard for the determination of RANTES production (linear range between 1 and 10 ng/ml). Eu-labelled mouse anti-huRANES mAb (60 ng/ml: R&D Systems, #mAb278) in PBS supplemented by 1% BSA and 0.05% Tween 20 was added (50 μl) to each well. The reaction mixtures were incubated at room temperature for 4 hrs. After washing with wash buffer (0.05% Tween-20, 0.85% NaCl, and 25 mM Tris/HCl pH7.4, 350 μl/well) for 5 times with the use of a Sera Washer (Bio-Tech, #MW-96R), the enhancement solution (DELFIA, #1244-405, 100 μl/well) was added to each well. The plate was incubated for 10 minutes at room temperature with moderate shaking. Fluorescent intensity was measured using a DELFIA fluorimeter (Wallac). Excitation was performed at 340 nm and emission was measured at 615 nm. [The Measurement of TNF-α Production in Response to LPS from Peripheral Blood Mononuclear Cells (PBMC)] (1) Preparation of PBMC • Human PBMC were prepared by first obtaining blood from healthy donors and isolating the cells from the blood. The isolation was done by Ficoll gradient-centrifugation method using Ficoll Pacque (Pharmacia #17-1440-02). Within three hours from donation, the isolated PBMC was used. After three times washing with PBS, PBMC were resuspended with RPMI 1640 (Nikken BioMedical Institute) supplemented with 10% FCS (Gibco), 100 U/ml penicillin, 100 μg/ml streptomycin, and 2 mM glutamine (culture medium). The cells (1×10^5 in 150 μL/well) were seeded in each well of 96 well flat-bottom tissue culture plate (Falcon #3072). To the each well was added 20 μl vehicle (1% DMSO), serial dilutions of test compounds in 1% DMSO, or 250 nM Dexamethasone in 1% DMSO as a reference. The mixture (170 μl/well) was incubated for 1 hr at 37° C. After 1 hr, 20 ng/ml LPS (30 μl) in culture medium was added to the mixture to obtain 200 μl of reaction mixture. […]
An IC50 of under 1000 nM was found for O=C1Nc2nc(-c3c(O)cccc3OCC3CC3)cc(C3CCCNC3)c2CO1 (centres unmarked) [Example 18-1, 7-[2-(cyclopropylmethoxy)-6-hydroxyphenyl]-5-(3-piperidinyl)-1,4-dihydro-2H-pyrido[2,3-d][1,3]oxazin-2-one hydrochloride] in this work.
